Calls of active or inactive are those of the source. No cut-off for these calls is given here. A value given as a limit tells only on which side of the number the result lay.

One assay concerns Bacillus subtilis. Description: Antimicrobial activity against Bacillus subtilis ATCC 6051 after 24 hrs by spectrophotometric method. It counts as functional, organism-based.
Another assay relates to Pichia kudriavzevii. Description: Antimicrobial activity against Candida krusei ATCC 6258 after 24 hrs by spectrophotometric method. It counts as functional, organism-based.
The subject of a further assay is Escherichia coli. Description: Antimicrobial activity against Escherichia coli ATCC 11775 after 24 hrs by spectrophotometric method. It counts as functional, organism-based. To be noted: DSM 30083 = JCM 1649 = ATCC 11775.
A further assay concerns Pseudomonas aeruginosa. In words: Antimicrobial activity against Pseudomonas aeruginosa ATCC 10145 after 24 hrs by spectrophotometric method. It counts as functional, organism-based.
For a further assay, the system named is NCI-H460. Description: Cytotoxicity against human NCI-H460 cells assessed as inhibition of cell growth after 48 hrs by MTT assay. It counts as cell-based. To be noted: NCI-H460, 48 h.
A further assay deals with Staphylococcus aureus. Description: Antimicrobial activity against Staphylococcus aureus ATCC 25923 after 24 hrs by spectrophotometric method. It counts as functional, organism-based.
A further assay relates to Candida albicans. Description: Antimicrobial activity against Candida albicans ATCC 10231 after 24 hrs by spectrophotometric method. It counts as functional, organism-based.
The next assay deals with SW-620. In words: Cytotoxicity against human SW620 cells assessed as inhibition of cell growth after 48 hrs by MTT assay. It counts as cell-based. The settings on record: SW-620, 48 h.
Another assay deals with Candida parapsilosis. In words: Antimicrobial activity against Candida parapsilosis ATCC 22019 after 24 hrs by spectrophotometric method. It counts as functional, organism-based.

Consider `CC[C@@H](C)[C@H](NC(=O)[C@H](CCC(N)=O)NC(=O)C(C)(C)NC(C)=O)C(=O)N[C@H](C(=O)NC(C)(C)C(=O)N1CCC[C@H]1C(=O)N[C@H](C(=O)N[C@@H](CC(C)C)C(=O)NC(C)(C)C(=O)N1CCC[C@H]1C(=O)N[C@H](CO)C(C)C)[C@@H](C)CC)C(C)C`, for which the result in the assay with Bacillus subtilis, in the assay with Pichia kudriavzevii, in the assay with Escherichia coli, in the assay with Pseudomonas aeruginosa, in the assay on Staphylococcus aureus and with Candida albicans was inactive. The result with Candida parapsilosis was inactive. Further, the IC50 in the assay on NCI-H460 and with SW-620 was greater than 30 µM in each case.
On to `CC[C@@H](C)[C@H](NC(=O)[C@H](CCC(N)=O)NC(=O)[C@@](C)(CC)NC(C)=O)C(=O)N[C@H](C(=O)NC(C)(C)C(=O)N1CCC[C@H]1C(=O)N[C@H](C(=O)N[C@@H](CC(C)C)C(=O)NC(C)(C)C(=O)N1CCC[C@H]1C(=O)N[C@H](CO)CC(C)C)[C@@H](C)CC)C(C)C`, for which the result with Bacillus subtilis, with Pichia kudriavzevii, in the assay with Escherichia coli, in the assay with Pseudomonas aeruginosa, with Staphylococcus aureus and in the assay with Candida albicans was inactive. Moreover, the outcome with Candida parapsilosis was inactive. Moreover, the concentration for half-maximal inhibition (IC50) in the assay with NCI-H460 is 10.9 µM; in the assay with SW-620 it was 12.8 µM.
With `CC[C@H](C)[C@H](NC(=O)[C@@H]1CCCN1C(=O)C(C)(C)NC(=O)[C@@H](NC(=O)[C@@H](NC(=O)[C@H](CCC(N)=O)NC(=O)[C@@](C)(CC)NC(C)=O)C(C)C)C(C)C)C(=O)N[C@@H](CC(C)C)C(=O)NC(C)(C)C(=O)N1CCC[C@H]1C(=O)N[C@H](CO)C(C)C`, the result with Bacillus subtilis, in the assay on Pichia kudriavzevii, in the assay on Escherichia coli, in the assay with Pseudomonas aeruginosa, in the assay on Staphylococcus aureus and in the assay with Candida albicans was inactive. In addition, the outcome in the assay with Candida parapsilosis was inactive. In addition, the IC50 was greater than 30 µM in the assay on NCI-H460 and 27.5 µM in the assay with SW-620.
Turning to `CC[C@@H](C)[C@H](NC(=O)[C@H](CCC(N)=O)NC(=O)[C@@](C)(CC)NC(C)=O)C(=O)N[C@H](C(=O)NC(C)(C)C(=O)N1CCC[C@H]1C(=O)N[C@H](C(=O)N[C@@H](CC(C)C)C(=O)NC(C)(C)C(=O)N1CCC[C@H]1C(=O)N[C@H](CO)C(C)C)[C@@H](C)CC)C(C)C`, the outcome with Bacillus subtilis, in the assay on Pichia kudriavzevii, in the assay with Escherichia coli, in the assay on Pseudomonas aeruginosa, in the assay with Staphylococcus aureus and in the assay with Candida albicans was inactive. Besides, the result in the assay on Candida parapsilosis was inactive. The IC50 in the assay on NCI-H460 was 19.3 µM; in the assay on SW-620, 18.9 µM.
Turning to `CC[C@@H](C)[C@H](NC(=O)[C@H](CCC(N)=O)NC(=O)C(C)(C)NC(C)=O)C(=O)N[C@H](C(=O)NC(C)(C)C(=O)N1CCC[C@H]1C(=O)N[C@H](C(=O)N[C@@H](CC(C)C)C(=O)NC(C)(C)C(=O)N1CCC[C@H]1C(=O)N[C@H](CO)CC(C)C)[C@@H](C)CC)C(C)C`, the result with Bacillus subtilis, in the assay with Pichia kudriavzevii, with Escherichia coli, with Pseudomonas aeruginosa, with Staphylococcus aureus and in the assay on Candida albicans was inactive. The result in the assay with Candida parapsilosis was inactive. The IC50 in the assay on NCI-H460 and in the assay on SW-620 was greater than 30 µM in each case.
